From publication PMC12311725, “Identification of Ginsentide-like Peptides from Cacao Beans with Oxidative Stress Protection” (ACS Omega, 2025)
One block for each compound: values may come before it. Where a SMILES comes first, the peptide text is derived from it. Bridges are numbered along the chain shown (N, C = ends). Where no end group is shown, it is not given here. The star is where a group is joined. 5FAM = O=C1OC2(c3ccc(O)cc3Oc3cc(O)ccc32)c2ccc(C(=O)*)cc21; Cam = NC(=O)C*

Columns and labels:
[1] = test system: HaCaT keratinocytes; assay: Live-cell confocal microscopy of internalization; format: cell-based, human; settings: 1 μM, 37 °C, 1 h, Z-stack confocal fluorescence
Method: HaCaT (human keratinocyte) cells were cultured in Dulbecco’s modification of Eagle’s medium (DMEM) supplemented with 10% fetal bovine serum and 100 U/mL penicillin and streptomycin. They were grown in a 5% CO2 humidified incubator at 37 °C
To examine the internalization of FAM-tC1 in living cells, the cells were seeded on an 8-well chamber slide (Ibidi). Prior to incubation with FAM-tC1, the cells were stained with […]. FAM-tC1 was incubated on cells in phenol red-free and serum-free medium for 1 h at 37 °C. The slides were washed gently with PBS three times, and the medium was replaced prior to imaging. The slides were observed by using a Zeiss LSM 980 confocal microscope.
8 Confocal image of fluorescent labeled FAM-tC1 in HaCaT keratinocytes. (A) 1 μM FAM-tC1 was incubated with HaCaT keratinocytes at 37 °C for 1 h, and Z-stack confocal analysis was performed. Green: FAM-tC1; Blue: Nucleus. The red outline indicates the region of interest (ROI) which is presented as a 3D-rendered Z-stack image on the right. (B) Fluorescence intensity line profiles measured across the ROI at three representative z-depths (bottom, middle, and top slice).

[2] = Post-translational modification analysis of methionine oxidation (tims-TOF MS/MS); format: physicochemical; settings: native peptide from aqueous extract
Method: The primary sequences of cocotides from Theobroma cacao aqueous extracts were determined by LC-MS/MS sequencing as described previously. The C18-SPE fractionated Theobroma cacao aqueous extracts were redissolved in 20 mM DTT at 37 °C for 1 h followed by S-alkylation with 200 mM iodoacetamide at 37 °C for 1 h. The mixture was desalted with a C18 Zip-tip and subjected to analysis on a trapped ion mobility spectrometer-time-of-flight tandem mass spectrometer (tims-TOF MS/MS). Data analysis was performed using PEAKS Studio (version 11, Bioinformatics Solutions, Waterloo, ON, Canada) with a precursor ion tolerance of 10 ppm and a fragment ion tolerance of 0.05 Da. Carbamidomethylation at Cys was set as a fixed modification. Deamidation of […], oxidation of Met, and acetylation at Lys and N-term were set as variable modification. Peptide sequencing was performed using PEAKS DB protein identification, which integrates database search of an in-house ginsentide-like peptide library derived from Theobroma cacao transcriptome with de novo sequencing.

[3] = test system: pepsin; assay: Peptide stability assay with pepsin (RP-HPLC); format: in vitro ADME; settings: pepsin 50:1 (w/v) in 0.2 M HCl, 37 °C, 6 h; peptide 0.1 M [sic]; RP-HPLC peak area as % of initial
Method: (§1) Stability studies were conducted using purified cocotide tC1 (0.1 M) and S-alkylated tC1 (iodoacetamido) under specific buffer conditions. Pepsin stability was assessed by incubating the samples in a mixture of pepsin at a ratio of 50:1 (w/v) in 0.2 M HCl at 37 °C. For trypsin stability, the samples were treated with trypsin in 0.1 M ammonium bicarbonate buffer (pH 8) at 37 °C. Analysis of stability assays involved collecting samples at various time points, which were then analyzed by reversed-phase high-performance liquid chromatography (RP-HPLC) using a linear gradient of mobile phase A (0.05% trifluoroacetic acid in water) and mobile phase B (0.05% trifluoroacetic acid in acetonitrile) on an Aeris Peptide XB-C18 column (Phenomenex). The stability results were expressed as a percentage of the initial concentration and determined by the peak area of the HPLC profile.
(§2) 7 Proteolytic stability assays of cocotide tC1. Cocotide tC1 was incubated with either pepsin or trypsin at 37 °C for up to 6 h. S-alkylated tC1 was used as the control. At different time points, samples of cocotide tC1 and the control were quantified using reversed-phase high pressure liquid chromatography (RP-HPLC). The relative peak areas of the RP-HPLC profiles were used to quantify the percentage of peptides remaining after incubation with pepsin or trypsin.

[4] = test system: trypsin; assay: Peptide stability assay with trypsin (RP-HPLC); format: in vitro ADME; settings: trypsin in 0.1 M ammonium bicarbonate buffer pH 8, 37 °C, 6 h; peptide 0.1 M [sic]; RP-HPLC peak area as % of initial
Method: as §1, §2

[5] = Ferric Reducing Antioxidant Power (FRAP) assay; settings: OxiSelect FRAP Assay Kit
Method: OxiSelect Ferric Reducing Antioxidant Power (FRAP) Assay Kit (Cell Biolabs, USA) was used to measure the antioxidant potential of cocotide tC1. The assay was performed according to the manufacturer’s instructions .

Compound: CC[C@H](C)[C@@H]1NC(=O)CNC(=O)[C@H](CCSC)NC(=O)[C@@H]2CCCN2C(=O)[C@H](Cc2ccc(O)cc2)NC(=O)[C@H](CC(C)C)NC(=O)[C@@H]2CSSC[C@@H]3NC(=O)[C@H](Cc4ccccc4)NC(=O)CNC(=O)CNC(=O)[C@H](C)NC(=O)[C@H](CO)NC(=O)[C@H](CC(C)C)NC(=O)[C@@H](NC(=O)[C@@H](N)CCCCNC(=O)c4ccc5c(c4)C(=O)OC54c5ccc(O)cc5Oc5cc(O)ccc54)CSSC[C@@H]4NC(=O)[C@H](CSSC[C@H](NC1=O)C(=O)N[C@@H](Cc1ccc(O)cc1)C(=O)NCC(=O)N[C@@H](CO)C(=O)NCC(=O)N[C@H](C(=O)O)CSSC[C@H](NC(=O)[C@H](CC(N)=O)NC(=O)CNC4=O)C(=O)NCC(=O)N2)NC(=O)[C@H](CC(=O)O)NC(=O)[C@H](CCSC)NC(=O)[C@@H]1CCCN1C(=O)[C@H](CC(N)=O)NC(=O)[C@H](Cc1ccccc1)NC(=O)[C@H](CCSC)NC3=O [FAM-tC1] (H-K(5FAM)CLSAGGFCMFNPMDCCGNCGCLYPMGICYGSGC-OH; disulfide 2-17, 9-22, 16-29, 20-34)
- fluorescent signal in the nucleus [1]: no fluorescent signals were detected in the nucleus
- cell penetration (internalization) ([1]; serum-free medium): readily penetrates the cells

- methionine oxidation pattern [2]: minimal oxidation
Compound: CLSAGGFCVFNPMDCCGNCGCLYPMGICYGSGC (disulfide (positions not given here)) [cocotide tC7, ginsentide-like cysteine-rich peptide found in T. cacao aqueous extract]

Compound: CLSAGGFCMFIPMDCCGNCGCLFPMGFCYGSGC (disulfide (positions not given here)) [cocotide tC2, ginsentide-like cysteine-rich peptide found in T. cacao aqueous extract]
- methionine oxidation pattern [2]: Met9 was more prone to oxidation than Met13

Compound: CC[C@H](C)[C@H](NC(=O)CNC(=O)[C@H](CCSC)NC(=O)[C@@H]1CCCN1C(=O)[C@H](Cc1ccc(O)cc1)NC(=O)[C@H](CC(C)C)NC(=O)[C@H](CSCC(N)=O)NC(=O)CNC(=O)[C@H](CSCC(N)=O)NC(=O)[C@H](CC(N)=O)NC(=O)CNC(=O)[C@H](CSCC(N)=O)NC(=O)[C@H](CSCC(N)=O)NC(=O)[C@H](CC(=O)O)NC(=O)[C@H](CCSC)NC(=O)[C@@H]1CCCN1C(=O)[C@H](CC(N)=O)NC(=O)[C@H](Cc1ccccc1)NC(=O)[C@H](CCSC)NC(=O)[C@H](CSCC(N)=O)NC(=O)[C@H](Cc1ccccc1)NC(=O)CNC(=O)CNC(=O)[C@H](C)NC(=O)[C@H](CO)NC(=O)[C@H](CC(C)C)NC(=O)[C@@H](N)CSCC(N)=O)C(=O)N[C@@H](CSCC(N)=O)C(=O)N[C@@H](Cc1ccc(O)cc1)C(=O)NCC(=O)N[C@@H](CO)C(=O)NCC(=O)N[C@@H](CSCC(N)=O)C(=O)O [S-alkylated cocotide tC1, reference compound] (H-C(Cam)LSAGGFC(Cam)MFNPMDC(Cam)C(Cam)GNC(Cam)GC(Cam)LYPMGIC(Cam)YGSGC(Cam)-OH)
- structural integrity retained (percentage of peptide remaining) after incubation with pepsin [3]: degraded rapidly
- structural integrity retained (percentage of peptide remaining) after incubation with trypsin [4]: degraded rapidly

Compound: O=C1O[C@H]([C@@H](O)CO)C(O)=C1O [ascorbic acid, reference compound]
- FRAP value [5]: 0.36 Fe^2+ μM/μM
